Laboratory results as given in ChEMBL document CHEMBL4304782, “Antioxidant, Anti-inflammatory, and Neuroprotective Effects of Novel Vinyl Sulfonate Compounds as Nrf2 Activator” (ACS Med Chem Lett, 2019).
pEC50: −log10 of the molar value.

Target: T1, Nuclear factor erythroid 2-related factor 2 (Homo sapiens, UniProt Q16236)
T1 sequence (Q16236 whole entry): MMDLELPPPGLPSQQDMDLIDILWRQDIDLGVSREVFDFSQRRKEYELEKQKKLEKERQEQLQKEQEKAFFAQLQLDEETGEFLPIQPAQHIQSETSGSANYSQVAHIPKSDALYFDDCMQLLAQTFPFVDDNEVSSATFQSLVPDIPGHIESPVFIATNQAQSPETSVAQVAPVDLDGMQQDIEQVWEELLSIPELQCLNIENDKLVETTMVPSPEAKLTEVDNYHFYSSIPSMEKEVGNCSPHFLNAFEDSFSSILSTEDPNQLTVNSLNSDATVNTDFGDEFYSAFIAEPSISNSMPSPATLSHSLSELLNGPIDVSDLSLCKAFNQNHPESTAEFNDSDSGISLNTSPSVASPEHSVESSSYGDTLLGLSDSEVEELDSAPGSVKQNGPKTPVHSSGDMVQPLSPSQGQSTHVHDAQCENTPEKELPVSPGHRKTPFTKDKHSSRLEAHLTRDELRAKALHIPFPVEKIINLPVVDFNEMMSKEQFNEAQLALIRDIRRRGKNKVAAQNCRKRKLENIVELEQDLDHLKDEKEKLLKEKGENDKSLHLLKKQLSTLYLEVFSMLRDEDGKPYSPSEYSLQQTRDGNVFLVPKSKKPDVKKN
Experiment: Activation of ED-tagged Nrf2 in human U2OS cells co-expressing Keap1 assessed as induction of NRF2 translocation to nucleus after 6 hrs by beta-galactosidase based chemiluminescent assay
Format: cell-based

pEC50	SMILES
6.16	COc1ccccc1OS(=O)(=O)/C=C/c1cccc(Cl)c1
5.87	COc1ccccc1OS(=O)(=O)/C=C/c1ccc(Cl)cc1
